Source: patent US6121252A, “Phosphinic acid derivatives” (priority 1998, dated 2000)
Where two headings read alike, the source gives them in different places.

Tests used:
[1] = test system: mice; assay: In vivo toxicity of NAALADase inhibitors (5-day survival); settings: 1 to 500 mg/kg
Source text: The mice were subsequently observed two times per day for 5 consecutive days. The survival rate at each dose level is provided below in TABLE II.

[2] = test system: extracellular glutamate; assay: Stroke-induced rise in brain glutamate levels (microdialysis); assay type: in vivo, Sprague Dawley rats; settings: 100 mg/kg IP then 20 mg/kg/hr IV
[3] = test system: sciatic nerve; assay: Myelin formation following sciatic nerve cryolesion; assay type: in vivo, mouse
Method: Cryolesion of the mouse sciatic nerve was performed according to Koenig et al. , Science, Vol. 268, pp. 1500-1503 (June 1995). In brief, each mouse was anesthetized and its sciatic nerve was exposed in the upper thigh and cryolesioned using a copper cryode (diameter=0.5 mm) that was dipped in liquid nitrogen and repeatedly applied to the upper part of the nerve. The extent of the lesion was approximately 1 mm.
Both right and left sciatic nerves of each mouse were lesioned; right-side nerves were treated with silicone implant strips containing vehicle alone while left-side nerves were treated with silicone implants containing 2-(phosphonomethyl)pentanedioic acid. Fifteen days after surgery, the mice were sacrificed and their sciatic nerve segments were collected and processed for light microscopy and TEM analysis. Randomly chosen fields 2-3 mm distal to the lesion were qualitatively analyzed by light microscopy using 1-micrometer-thick toluidine blue stained cross sections and photographic images were captured.

[4] = test system: Sprague-Dawley rats; assay: Dynorphin-induced spinal cord injury; assay type: in vivo, rat
Method: Dynorphin-induced spinal cord injury was performed according to Long et al., JPET, Vol. 269, No. 1, pp. 358-366 (1993). In brief, spinal subarachnoid injections were delivered using 30-gauge needles inserted between the L4-L5 vertebrae of male Sprague-Dawley rats (300-350 g). The rats were anesthetized with halothane and dorsal midline incisions were made immediately rostral to the pelvic girdle. By using the vertebral processes as guides, the needle was advanced to pass into the subarachnoid space surrounding the cauda equina. Correct needle placement was verified by CSF flow from the needle after its insertion. […] After injections, the incisions were treated with the topical antibacterial furazolidone and closed with wound clips. Rapid recovery from the halothane anesthesia enabled neurological evaluations to be made within 5 minutes of injections.
Neurological function was evaluated using a 5-point ordinal scale, with scores being assigned as follows: 4=normal motor function; 3=mild paraparesis, with the ability to support weight and walk with impairment; 2=paraparesis, with the ability to make walking movements without fully supporting weight; 1=severe paraparesis, in which rats could make limited hind limb movement, but not walking movement; and 0=flaccid paralysis, with complete absence of any hind limb movement. Neurological evaluations were made 24 hours after dynorphin A injection.
Differences in the neurological scores among treatment groups were determined by means of the Mann-Whitney U test or the Kruskal-Wallis test.

[5] = test system: alcohol-preferring rats; assay: Ethanol consumption in alcohol-preferring rats; assay type: in vivo, rat; settings: for reduction of ethanol consumption: p<0.05
Method: A within-subject design was used where 2-(phosphonomethyl)pentanedioic acid treatments were tested once per week. Baseline ethanol drinking consisted of the mean of the 3 days prior to testing in which saline injections were given. […] 24 hour water and daily body weights were recorded to assess non-specific drug effects. Results were analyzed using paired t-tests with baseline and test day values serving as the independent variables. Ethanol intake was recorded as amount of solution consumed (mls).

[6] = test system: male Long-Evans rats; assay: Nicotine self-administration in male Long-Evans rats; assay type: in vivo, rat; settings: 200 mg/kg
Method: Male Long-Evans rats were trained to self-administer nicotine on a fixed ratio schedule of reinforcement, as described by Corrigall et al., Psychopharmacology, Vol. 104, No. 2, pp. 171-176 (1991) and Corrigall et al., Psychopharmacology, Vol. 107, Nos. 2-3, pp. 285-289 (1992). In brief, male Long-Evans rats were food deprived for a short period of time (24-48 hours) and trained to press a lever in an operant responding chamber on an FR-1 schedule of food reinforcement. Once trained, each rat was surgically prepared with a chronic intravenous catheter implanted into the jugular vein. The rats were allowed 1 week to recover from surgery.
After 1 week, nicotine self-administration studies were initiated on an FR-1 with a 60 second signaled time-out following each infusion. During time-out, responding on the lever had no scheduled consequence. Nicotine self-administration sessions were 60 minutes in duration. Each nicotine infusion contained 30 μg of nicotine/kg rat and were delivered in a volume of 54 μl over an infusion duration of 0.3 seconds. […] Food intake was monitored during the nicotine self-administration sessions to assess non-specific drug effects.

[7] = test system: LNCaP tumors; assay: In vivo LNCaP tumor model, subcutaneous Compound 3; design: species or system ncr nude male mice
Method: Ncr nude male mice, age 5 to 6 weeks, were injected in the right flank with 5×10^6 LNCaP cells in Matrigel™ (0.1 ml total injection volume). […] Controls received 50 mM HEPES s.c. daily. Once tumors were palpable they were measured twice a week.
(§1) Response to treatment was monitored in two ways. First, mean tumor volume for each group was presented as tumor:control ratio (% T/C) and these values were compared at one point in time. Second, tumor volume versus time was monitored.

[8] = test system: LNCaP tumors; assay: In vivo LNCaP tumor model, intratumoral Compound 3; design: species or system ncr nude male mice
Method: Ncr nude male mice, age 5 to 6 weeks, were injected in the right flank with 10^7 LNCaP cells in Matrigel™ (0.1 ml total injection volume). When the tumors reached a predetermined size (50 to 60 mm^3), mice were randomly placed into treatment groups of 6 to 8 mice each. […] Controls received 50 μl of 50 mM HEPES intratumorally daily. Tumors were measured twice a week.
as §1

[9] = test system: LNCaP cells
Method: On the 7th day, the cells are pulsed with 3H-thymidine for 4 hours, harvested and measured for radioactivity. Values represent means +/- SEM of 6 separate cell wells for each treatment. All experiments are performed at least twice.
LNCaP cells are obtained from Dr. William Nelson at the Johns Hopkins School of Medicine in Baltimore, Md. DU145 cells are obtained from American Type Culture Collection (Rockville, Md.). Cells are grown in RPMI-1640 media supplemented with 5% heat-inactivated fetal calf serum, 2 mM-glutamine, 100 units/ml penicillin, and 100 μg/ml streptomycin (Paragon) in a humidified incubator at 37° C. in a 5% CO2 /95% air atmosphere.
The cells are suspended at 1×10^3 cells/ml in RPMI-1640 media and seeded into 24-well plates at 500 μl per well. […] 5 ml UltimaGold (Packard) scintillation cocktail is added and radioactivity is quantitated using a Beckman LS6001 scintillation counter.

## O=C(O)CCC(CP(=O)(O)O)C(=O)O (stereo not drawn) [Compound 3, 2-(phosphonomethyl)pentanedioic acid]
[1]
  toxicological effect (in words): non-toxic to mice
[2]; p<0.01
  stroke-induced glutamate changes, parietal cortex (in words): completely prevented concurrent glutamate changes in the parietal cortex
[2]; p<0.05
  stroke-induced extracellular glutamate increase, striatum (in words): significantly attenuated stroke-induced extracellular glutamate increases in the striatum
[2]; vs vehicle
  glutamate, frontal cortex (in words): no subsequent difference between the vehicle and 2-(phosphonomethyl)pentanedioic acid treated groups
[3]; ave. + SEM, vehicle 13.77 ± 0.09, p < 0.005
  # of myelinated lamellae: 16.53 ± 0.65
[3]; p < 0.005
  % increase of myelinated lamellae over vehicle: 20%
[3]; silicone implant, approx. 2.5 μg/day, 15 days
  ratio of # of myelinated axons (drug/vehicle): 1.5
[3]; vs vehicle, 3 mm distal to cryolesion
  increase in number of myelinated axons: 1.5 fold
[3]; vs vehicle, 3 mm distal to cryolesion, p<0.005
  increase in myelin thickness: 20%
[4]; 4 μmoles with dynorphin A, 24 hours, p<0.05 vs vehicle
  motor scores (in words): significant improvement in motor scores
[4]; 24 hours post-injection, 15 rats, vehicle 14%, p<0.05
  rats ambulatory: 73%
[4]; rat, in vivo
  protection against dynorphin-induced spinal cord injury (in words): provides effective protection against dynorphin-induced spinal cord injury
[5]; 50 mg/kg IP, 1 hour access
  reduction of ethanol consumption: approximately 25%
[5]; 50 mg/kg, saline baseline 8.1±0.6
  ethanol intake: 6.2±0.9 mls
[5]; 100 mg/kg IP, 1 hour access
  reduction of ethanol consumption: approximately 25%
[5]; 100 mg/kg, saline baseline 7.8±0.8
  ethanol intake: 5.8±0.7 mls
[5]; 200 mg/kg IP, 1 hour access
  effect on ethanol consumption (in words): no effect
[5]; 200 mg/kg, saline baseline 8.9±0.7
  ethanol intake: 8±0.5 mls
[5]; 50, 100, 200 mg/kg
  body weights and 24 hour water intakes (in words): not altered at any of the 3 doses
[6]; 1 hour
  cumulative food intake (in words): decreased
[6]; 1 hour access period, reduced from 23
  nicotine self-administration: 5 infusions
[7]; 1 mg/kg s.c.
  effect on tumor growth (in words): no effect on tumor growth
[7]; 3 mg/kg s.c.
  effect on tumor growth (in words): no effect on tumor growth
[7]; 10 mg/kg s.c., day 86, p=0.006
  tumor growth, % of controls: 24 % of controls
[7]; 30 mg/kg s.c.
  effect on tumor growth (in words): no effect on tumor growth
[8]; 0.025 μg/day intratumoral
  Optimal % T/C: 42 % T/C
  Regressions: 1/7
[8]; 0.025 μg/day, control 807.3±197.3
  Tumor volume after 42 days of treatment: 465.7±176 mm^3
[8]; 0.25 μg/day intratumoral
  Optimal % T/C: 51 % T/C
  Regressions: 1/7
[8]; 2.5 μg/day intratumoral
  Optimal % T/C: 45 % T/C
  Regressions: 0/7
[8]; 25.0 μg/day intratumoral
  Optimal % T/C: 76 % T/C
  Regressions: 0/7
[8]; 0.025, 0.25 and 2.5 μg/day intratumoral
  tumor growth (in words): slowed tumor growth substantially
[9]; 10 pM
  3H-Thymidine Incorporation: 3078 ± 1006 dpm/well
[9]; 100 pM
  3H-Thymidine Incorporation: 2062 ± 595 dpm/well
[9]; 1 nM
  3H-Thymidine Incorporation: 1001 ± 52 dpm/well
[9]; 10 nM
  3H-Thymidine Incorporation: 664 ± 366 dpm/well
